Measured values taken from ChEMBL document CHEMBL1156714, “Microwave induced synthesis of novel 8,9-dihydro-7H-pyrimido[4,5-b][1,4]diazepines as potential antitumor agents” (2008).
Activity calls are given as the source filed them. No cut-off for these calls is given here.

How the values were obtained:
[1] = tested on: NCI-60; assay: Growth inhibition of human NCI-60 cells at 1.0 uM; type: functional, cell-based
[2] = tested on: NCI-H522; assay: Growth inhibition of human NCI-H522 cells after 48 hrs by SRB assay; type: functional; conditions: NCI-H522, 48 h
[3] = tested on: EKVX; assay: Growth inhibition of human EKVX cells after 48 hrs by SRB assay; type: functional
[4] = tested on: SF-268; assay: Growth inhibition of human SF268 cells after 48 hrs by SRB assay; type: functional; conditions: SF-268, 48 h
[5] = tested on: RXF 393; assay: Growth inhibition of human […] cells after 48 hrs by SRB assay; type: functional; conditions: RXF 393, 48 h
[6] = tested on: HT-29; assay: Growth inhibition of human HT29 cells after 48 hrs by SRB assay; type: functional; conditions: HT-29, 48 h
[7] = tested on: MDA-MB-435; assay: Growth inhibition of human MDA-MB-435 cells after 48 hrs by SRB assay; type: functional; conditions: MDA-MB-435, 48 h
[8] = tested on: IGROV-1; assay: Growth inhibition of human IGROV1 cells after 48 hrs by SRB assay; type: functional; conditions: IGROV-1, 48 h
[9] = Growth inhibition of human HL60(TB) cells after 48 hrs by SRB assay; type: functional, HL-60(TB); conditions: Homo sapiens, HL-60, 48 h
[10] = tested on: MDA-MB-468; assay: Growth inhibition of human MDA-MB-468 cells after 48 hrs by SRB assay; type: functional; conditions: MDA-MB-468, 48 h
[11] = tested on: K562; assay: Growth inhibition of human K562 cells after 48 hrs by SRB assay; type: functional; conditions: K562, 48 h
[12] = tested on: MDA-MB-231; assay: Growth inhibition of human MDA-MB-231 cells after 48 hrs by SRB assay; type: functional; conditions: MDA-MB-231, 48 h
[13] = tested on: TK-10; assay: Growth inhibition of human TK10 cells after 48 hrs by SRB assay; type: functional; conditions: TK-10, 48 h
[14] = tested on: DU-145; assay: Growth inhibition of human DU145 cells after 48 hrs by SRB assay; type: functional; conditions: DU-145, 48 h
[15] = tested on: LOX IMVI; assay: Growth inhibition of human LOX IMVI cells after 48 hrs by SRB assay; type: functional
[16] = tested on: SF-295; assay: Growth inhibition of human SF295 cells after 48 hrs by SRB assay; type: functional; conditions: SF-295, 48 h
[17] = tested on: SN12C; assay: Growth inhibition of human SN12C cells after 48 hrs by SRB assay; type: functional
[18] = tested on: A498; assay: Growth inhibition of human A498 cells after 48 hrs by SRB assay; type: functional; conditions: A498, 48 h
[19] = tested on: SR; assay: Growth inhibition of human SR cells after 48 hrs by SRB assay; type: functional
[20] = Growth inhibition of human […] cells after 48 hrs by SRB assay; type: functional
[21] = tested on: MCF7; assay: Growth inhibition of human MCF7 cells after 48 hrs by SRB assay; type: functional; conditions: MCF7, 48 h
[22] = tested on: SNB-75; assay: Growth inhibition of human SNB75 cells after 48 hrs by SRB assay; type: functional; conditions: SNB-75, 48 h
[23] = tested on: SK-MEL-5; assay: Growth inhibition of human SK-MEL-5 cells after 48 hrs by SRB assay; type: functional; conditions: SK-MEL-5, 48 h
[24] = tested on: UO-31; assay: Growth inhibition of human UO31 cells after 48 hrs by SRB assay; type: functional; conditions: UO-31, 48 h
[25] = tested on: MOLT-4; assay: Growth inhibition of human MOLT4 cells after 48 hrs by SRB assay; type: functional; conditions: MOLT-4, 48 h
[26] = tested on: CAKI-1; assay: Growth inhibition of human CAKI1 cells after 48 hrs by SRB assay; type: functional; conditions: CAKI-1, 48 h
[27] = tested on: NCI/ADR-RES; assay: Growth inhibition of human NCI/ADR-RES cells after 48 hrs by SRB assay; type: functional
[28] = Growth inhibition of human OVACR4 cells after 48 hrs by SRB assay; type: functional
[29] = tested on: NCI-H460; assay: Growth inhibition of human NCI-H460 cells after 48 hrs by SRB assay; type: functional; conditions: NCI-H460, 48 h
[30] = tested on: HCC 2998; assay: Growth inhibition of human HCC2998 cells after 48 hrs by SRB assay; type: functional; conditions: HCC 2998, 48 h
[31] = tested on: NCI-H226; assay: Growth inhibition of human NCI-H226 cells after 48 hrs by SRB assay; type: functional; conditions: NCI-H226, 48 h
[32] = tested on: Malme-3M; assay: Growth inhibition of human MALME-3M cells after 48 hrs by SRB assay; type: functional
[33] = tested on: NCI-H23; assay: Growth inhibition of human NCI-H23 cells after 48 hrs by SRB assay; type: functional; conditions: NCI-H23, 48 h
[34] = tested on: NCI-H322M; assay: Growth inhibition of human NCI-H322M cells after 48 hrs by SRB assay; type: functional
[35] = tested on: T47D; assay: Growth inhibition of human T47D cells after 48 hrs by SRB assay; type: functional
[36] = tested on: U-251; assay: Growth inhibition of human U251 cells after 48 hrs by SRB assay; type: functional; conditions: U-251, 48 h
[37] = tested on: SF-539; assay: Growth inhibition of human SF539 cells after 48 hrs by SRB assay; type: functional; conditions: SF-539, 48 h
[38] = tested on: SW-620; assay: Growth inhibition of human SW620 cells after 48 hrs by SRB assay; type: functional; conditions: SW-620, 48 h
[39] = tested on: Hs-578T; assay: Growth inhibition of human HS578T cells after 48 hrs by SRB assay; type: functional
[40] = Growth inhibition of human OVACR3 cells after 48 hrs by SRB assay; type: functional
[41] = tested on: KM12; assay: Growth inhibition of human KM12 cells after 48 hrs by SRB assay; type: functional; conditions: KM12, 48 h
[42] = read-out: LC50 (the source's name)

SMILES: Cc1ccc(C2=Nc3c(N)ncnc3NC(c3ccc4c(c3)OCO4)C2)cc1 (racemic)
- Activity [1]: Active
- GI50 [2]: 3.67 µM
- CC50 [2, 42]: > 100 µM
- GI50 [3]: 16.2 µM
- CC50 [3, 42]: > 100 µM
- GI50 [4]: 4.06 µM
- LC50 (50% lethal concentration) [4]: 52.2 µM
- GI50 [5]: 3.5 µM
- CC50 [5, 42]: > 100 µM
- GI50 [6]: 3.81 µM
- CC50 [6, 42]: > 100 µM
- GI50 [7]: 1150 nM
- CC50 [7, 42]: 90.8 µM
- GI50 [8]: 3.34 µM
- CC50 [8, 42]: > 100 µM
- GI50 [9]: 720 nM
- CC50 [9, 42]: > 100 µM
- GI50 [10]: 3.68 µM
- CC50 [10, 42]: > 100 µM
- GI50 [11]: 4.19 µM
- LC50 [11]: > 100 µM
- GI50 [12]: 4.37 µM
- CC50 [12, 42]: 55.6 µM
- GI50 [13]: 4.47 µM
- CC50 [13, 42]: 69.7 µM
- GI50 [14]: 4.52 µM
- CC50 [14, 42]: 46.7 µM
- GI50 [15]: 6.38 µM
- CC50 [15, 42]: 81.5 µM
- GI50 [16]: 4.98 µM
- LC50 [16]: > 100 µM
- GI50 [17]: 8.61 µM
- CC50 [17, 42]: > 100 µM
- GI50 [18]: 6.33 µM
- LC50 [18]: > 100 µM
- GI50 [19]: 250 nM
- LC50 (concentration killing 50% of cells) [19]: > 100 µM
- GI50 [20]: 13.5 µM
- CC50 [20, 42]: > 100 µM
- GI50 [21]: 3.42 µM
- LC50 [21]: > 100 µM
- GI50 [22]: 4.55 µM
- CC50 [22, 42]: > 100 µM
- GI50 [23]: 3.85 µM
- CC50 [23, 42]: > 100 µM
- GI50 [24]: 10.8 µM
- CC50 [24, 42]: 65.2 µM
- GI50 [25]: 2660 nM
- CC50 [25, 42]: > 100 µM
- GI50 [26]: 1440 nM
- CC50 [26, 42]: > 100 µM
- GI50 [27]: 3.52 µM
- CC50 [27, 42]: > 100 µM
- GI50 [28]: 17.7 µM
- LC50 [28]: > 100 µM
- GI50 [29]: 3.59 µM
- CC50 [29, 42]: > 100 µM
- GI50 [30]: 6.29 µM
- LC50 (concentration killing 50% of cells) [30]: > 100 µM
- GI50 [31]: 12.6 µM
- CC50 [31, 42]: > 100 µM
- GI50 [32]: 3.01 µM
- CC50 [32, 42]: > 100 µM
- GI50 [33]: 10.2 µM
- CC50 [33, 42]: > 100 µM
- GI50 [34]: 16.5 µM
- CC50 [34, 42]: > 100 µM
- GI50 [35]: 5.72 µM
- CC50 [35, 42]: > 100 µM
- GI50 [36]: 4.55 µM
- CC50 [36, 42]: 44.5 µM
- GI50 [37]: 4.98 µM
- CC50 [37, 42]: 69.9 µM
- GI50 [38]: 3.56 µM
- CC50 [38, 42]: > 100 µM
- GI50 [39]: 7.28 µM
- CC50 [39, 42]: > 100 µM
- GI50 [40]: 2750 nM
- LC50 [40]: 23.3 µM
- GI50 [41]: 3.79 µM
- CC50 [41, 42]: 75.1 µM
